Experimental data: US8815509B2, “Fluorescence-based assay for the rapid detection and quantification of deoxyribonucleoside triphosphates” (University of Southern California, priority 2011, dated 2014)

Tested on: HCT116 human colorectal cancer cells
Assay: Intracellular dNTP pools of HCT116 cells after treatment with thymidylate synthase inhibitors, measured with the fluorescence-based dNTP assay
Conditions: for Intracellular dGTP concentration / Intracellular dCTP concentration / Intracellular dATP concentration / Intracellular dTTP concentration: 4 h, Mean ± SD; for Intracellular dGTP concentration: control 4.7 ± 0.8; for Intracellular dCTP concentration: control 10.5 ± 0.2; for Intracellular dATP concentration: control 13.6 ± 1.17; for Intracellular dTTP concentration: control 20.4 ± 0.77; for dGTP after treatment: depletion from 4.7; for dCTP levels after treatment: reduction from 10.5; for dTTP after treatment: vehicle-treated cells 20.4
[1] = HCT116, 2.5 μmol/L pemetrexed, 4 hours

Method: Reaction mixtures contained primer, probe and template at an equimolar final concentration of 0.4 mmol/L. MgCl2 was included at a final concentration of 2 mmol/L. Non-limiting dNTPs were included in the reaction mix in excess at a final concentration of 100 mmol/L (the dNTP to be assayed was excluded). AmpliTaq Gold DNA polymerase was added at 0.875 U/reaction, 2.5 μl of 10×PCR buffer 2 added and nuclease-free ddH2O added to a final reaction volume of 25 μl. For analysis of cell extracts, the volume of ddH20 was modified to accommodate the addition of 2.5 μl of cell extract. For dUTP determination from cell extracts, the volume of ddH20 was further modified to accommodate an additional 1 μl of dUTPase (10 ng/μl). Thermal profiling and fluorescence detection was performed using the ‘isothermal’ program on board an Applied Biosystems 7500 Real-Time PCR System. For analysis of dNTPs, the thermal profile consisted of a 10 min 95° C. step to ‘hot-start’ the Taq polymerase and a primer extension time of up to 30 min at 60° C. depending on the application. Raw fluorescence spectra for 6-FAM was measured using filter A at specified time intervals (typically every 5 min) to follow assay progression using Sequence Detection Software (SDS Version 1.4, Applied Biosystems) and exported and analyzed in Microsoft Excel (Microsoft, Redmond Wash.) and Prism (GraphPad Software, La Jolla Calif.). In all cases, fluorescence values for blank reactions (limiting dNTP omitted) were subtracted to give normalized fluorescence units (NFU) to account for background probe fluorescence.
The human colorectal cancer cell line HCT116 was purchased from American Type Culture Collection (Lockville, Md.). HCT116 cells were maintained in McCoy's 5A media (Invitrogen) supplemented with 10% fetal bovine serum (Lonza, Walkersville, Md.) with penicillin/streptomycin, sodium pyruvate and L-glutamine (Invitrogen, Carlsbad, Calif.). For pemetrexed analyses, cells were incubated in folate-depleted RPMI supplemented with 25 nmol/L 5-Formyltetrahydrofolate, 10% fetal bovine serum (Lonza), penicillin/streptomycin, sodium pyruvate and L-glutamine for 24 h prior to treatment. Cells were maintained in a humidified Form a incubator (Form a, Waltham, Mass.) at 37° C. with 5% CO2 and routinely screened for mycoplasma using the MycoALERT detection kit (Lonza) and verified mycoplasma negative.
The relationship between assay response and known concentrations of the analytes (dNTPs) was analyzed by a 5-point (minimum) calibration curve. Calibration curves were obtained by assaying serial dilutions of dNTP standards diluted with ultra-pure nuclease-free water to the desired concentration and evaluated using regression coefficients (R^2). Samples were assayed in triplicate, and experiments were repeated on three independent occasions as appropriate. The limit of detection (LOD) was defined as the mean value of the negative blind controls plus 3 standard deviations (SD) of the mean, i.e. the concentration with a signal to noise ratio of 3:1. The limit of quantification (LOQ) was defined as the mean value of the negative controls plus 5 SD determined from three independent assays (signal to noise ratio of 5:1). Coefficient of variation (% CV) values were calculated from the cumulative mean and SD of replicates. Inter-assay % CVs were calculated from 3 independent experiments performed on different days. The intra-assay % CV represents the mean±SD % CV obtained from assaying replicate samples within 3 identical yet independent assays performed on the same day. The accuracy was assessed by comparing the nominal dNTP concentrations with the corresponding calculated values based on the calibration curve and presented as a percentage.

O=c1[nH]c(=O)n([C@H]2C[C@H](O)[C@@H](CO)O2)cc1F [FUdR, fluorodeoxyuridine]
Intracellular dGTP concentration (HCT116, 1 μmol/L FUdR): 0.43 ± 0.11 pmoles × 10^6 cells
Intracellular dCTP concentration (HCT116, 1 μmol/L FUdR): 8 ± 0.04 pmoles × 10^6 cells
Intracellular dATP concentration (HCT116, 1 μmol/L FUdR): 14.5 ± 0.13 pmoles × 10^6 cells
Intracellular dTTP concentration (HCT116, 1 μmol/L FUdR): 4.5 ± 0.71 pmoles × 10^6 cells
Depletion of dTTP versus vehicle-treated cells (HCT116, 1 μmol/L FUdR, 4 hours): > 4 fold
dGTP after treatment (HCT116, 1 μmol/L FUdR, 4 hours): 0.43 pmoles per 10^6 cells
dCTP levels after treatment (HCT116, 1 μmol/L FUdR, 4 hours): 8 pmoles per 10^6
dTTP after treatment (HCT116, 1 μmol/L FUdR, 4 hours): 4.5 pmoles per 10^6 cells

O=c1[nH]cc(F)c(=O)[nH]1 [5-FU, 5-fluorouracil]
Intracellular dGTP concentration (HCT116, 5 μmol/L 5-FU): 0.88 ± 0.1 pmoles × 10^6 cells
Intracellular dCTP concentration (HCT116, 5 μmol/L 5-FU): 8.7 ± 0.24 pmoles × 10^6 cells
Intracellular dATP concentration (HCT116, 5 μmol/L 5-FU): 13.9 ± 0.33 pmoles × 10^6 cells
Intracellular dTTP concentration (HCT116, 5 μmol/L 5-FU): 1.64 ± 0.16 pmoles × 10^6 cells
dGTP after treatment (HCT116, 5 μmol/L 5-FU, 4 hours): 0.9 pmoles per 10^6 cells
dCTP levels after treatment (HCT116, 5 μmol/L 5-FU, 4 hours): 8.7 pmoles per 10^6
dTTP after treatment (HCT116, 5 μmol/L 5-FU, 4 hours): 1.6 pmoles per 10^6 cells

Nc1nc2[nH]cc(CCc3ccc(C(=O)N[C@@H](CCC(=O)O)C(=O)O)cc3)c2c(=O)[nH]1 [PTX, pemetrexed]
Intracellular dGTP concentration (HCT116, 2.5 μmol/L PTX): 1.14 ± 0.3 pmoles × 10^6 cells
Intracellular dCTP concentration (HCT116, 2.5 μmol/L PTX): 11.1 ± 2.5 pmoles × 10^6 cells
Intracellular dATP concentration (HCT116, 2.5 μmol/L PTX): 13.4 ± 1.68 pmoles × 10^6 cells
Intracellular dTTP concentration (HCT116, 2.5 μmol/L PTX): 3.93 ± 0.8 pmoles × 10^6 cells
dGTP after treatment [1]: 1.1 pmoles per 10^6 cells
dTTP after treatment [1]: 3.9 pmoles per 10^6 cells
